Patent US11965886B2, “Method of immobilizing a cell on a support using compounds comprising a polyethylene glycol moiety” (Roche Diagnostics Operations, Inc., priority 2013, dated 2024)
“And” between values parts separate entries of the source, which are not always exact repeats. Equal values may be shown once. Read-outs that look alike come from different tables or passages of the source.

Columns and labels:
WBCs [1] = assay: Immobilization of cells: recovery rate of cells on SA (streptavidin) plate or untreated plate (Example 3); type: cell-based
Procedure: The following applies for modular description of the compounds below: X=hydrophobic moiety, […]=fluorescein In the following experiment, the recovery rate of cells was determined.

white blood cells (WBCs) = tested on: white blood cells (WBCs)
Procedure: In particular, the performance of a single cholesterol-molecule and different dual-linker molecules (i.e. containing two hydrophobic moieties) was tested. In detail, immobilization of white blood cells (WBCs) on a Streptavidin-coated surface using different linker molecules was tested on a 12-well plate: 300 000 WBCs/well. This was followed by the measurement of the cell recovery rate after immobilization and washing of the cells using the Cellavista instrument (10× Nuclei Operator s9s5).

Epithelial cells = assay: Labelling of cells using compounds (staining/uptake); type: cell-based
Excerpt: (§1) 2. Labelling of Cells Using Compounds Useful in Methods of the Invention

MDA-MB468 = assay: as above; type: cell-based
Excerpt: as §1

U937 = assay: as above; type: cell-based
Excerpt: as §1

WBCs [2] = assay: as above; type: cell-based
Excerpt: as §1

WBC = WBC recovery rate after centrifugation (cell stabilization, Example 5); type: cell-based; details: 300×g; for WBC recovery rate after centrifugation at different points of time, dependence on concentration: 0.35 nmol molecule A, 100 nmol and 0.5 nmol molecule B
Procedure: A) WBC Recovery Rate after Centrifugation and Cell Immobilization Using Different Molecules
Centrifugation characteristics: 10 min, 300×g.
B) WBC Recovery Rate after Centrifugation Using Different Compounds—Different Points of Time
Centrifugation characteristics: 10 min, 300×g. A: Choleseryl-TEG-Cholesteryl-TEG-(SpacerC18)7-Fluos-Biotin-TEG.
C) WBC Recovery Rate after Centrifugation—Different Experimenters
Centrifugation characteristics: 10 min, 300×g. Molecule: Cholesteryl-TEG-Cholesteryl-TEG-(SpacerC18)7-Fluos-Biotin-TEG.
D) WBC Recovery Rate after Centrifugation—Different Points of Time and Centrifugation Settings
Centrifugation characteristics: 20 min, 300×g.

Hela = assay: Labelling of cells using compounds (staining/uptake); type: cell-based
Excerpt: as §1

[3] = Sample 1, first block (concentration not given), 300 000 WBCs/well
[4] = Sample 1, compound concentration: 1 nmol/10e6 WBCs
[5] = Sample 1, compound concentration: 1 nmol/10e6 WBCs, 300 000 WBCs/well
[6] = Sample 2, compound concentration: 100 pmol/10e6 WBCs
[7] = Sample 2, compound concentration: 100 pmol/10e6 WBCs, 300 000 WBCs/well
[8] = Sample 2, compound concentration: 1 nmol/10e6 WBCs
[9] = Sample 2, compound concentration: 1 nmol/10e6 WBCs, 300 000 WBCs/well
[10] = cells treated with compound, streptavidin plate, repeated experiments

CCCCCCCC/C=C\CCCCCCCC(=O)OC[C@H](COP(=O)([O-])OCCNC(=O)CCCCCNC(=O)CCCC[C@@H]1SC[C@@H]2NC(=O)N[C@@H]21)OC(=O)CCCCCCC/C=C\CCCCCCCC.[Na+]
Recovery Rate (WBCs [1]; 10 pmol/10e6 cells): 66.30% and 74.40% | Recovery Rate (WBCs [1]; 500 pmol/10e6 cells): 80.16% and 95.94% | Recovery Rate (WBCs [1]; 1 nmol/10e6 cells): 95.80% and 101.76% | Recovery Rate (WBCs [1]; 10 nmol/10e6 cells): 89.19% and 105.12%

CCCCCCCCCCCCCCCC(=O)OC[C@H](COP(=O)([O-])OCCNC(=O)CCCCCNC(=O)CCCC[C@@H]1SC[C@@H]2NC(=O)N[C@@H]21)OC(=O)CCCCCCCCCCCCCCC.[Na+]
Recovery Rate (WBCs [1]; 10 pmol/10e6 cells): 54.30% and 45.40% | Recovery Rate (WBCs [1]; 100 pmol/10e6 cells): 72.20% and 86.10% | Recovery Rate (WBCs [1]; 300 pmol/10e6 cells): 51.80% and 55.90% and 52.60% and 73.07% and 61.27% and 71.40% | Recovery Rate (WBCs [1]; 1 nmol/10e6 cells): 84.90% and 89.30%

5′-(Cholesterol-TEG)1-Doubler-dT-Biotin-3′ [29.891272]
Recovery Rate (WBCs [1]; 10 pmol/10e6 cells): 65.03% | Recovery Rate (WBCs [1]; 100 pmol/10e6 cells): 83.08% and 56.49% and 62.11% and 82.01% | Recovery Rate (WBCs [1]; 1 nmol/10e6 cells): 87.93% and 72.13% and 82.47% | Recovery Rate (WBCs [1]; 10 nmol/10e6 cells): Cells lysed | Recovery Rate (white blood cells (WBCs); [3]): 56.49% | cells counted per well (white blood cells (WBCs); [3]): 147132 and 179643 and 181620 | Recovery Rate (white blood cells (WBCs); [4]): 72.13% | cells counted per well (white blood cells (WBCs); [5]): 199973 and 220701 and 228481 | Mean (cells counted per well) (white blood cells (WBCs); [6]): 186316.33 | Recovery Rate (white blood cells (WBCs); [6]): 62.11% | cells counted per well (white blood cells (WBCs); [7]): 161504 and 201424 and 196021 | Mean (cells counted per well) (white blood cells (WBCs); [8]): 247418.33 | Recovery Rate (white blood cells (WBCs); [8]): 82.47% | cells counted per well (white blood cells (WBCs); [9]): 241232 and 254894 and 246129 | cell immobilization characteristics, mono linker vs dual linker (white blood cells (WBCs); conclusion of Example 4): shows similar cell immobilization characteristics compared dual linker molecules

5′-(Cholesteryl-TEG)2-PEG2000-Fluos-Biotin_TEG-3′ INVERS [29.891250]
Recovery Rate (WBCs [1]; 100 pmol/10e6 cells): 48.66% | Recovery Rate (WBCs [1]; 1 nmol/10e6 cells): 81.29%

5′-(Cholesteryl-TEG)2-Spacer C12-dT-Biotin_TEG-3′ INVERS [29.891253]
Recovery Rate (WBCs [1]; 10 pmol/10e6 cells): 47.42% | Recovery Rate (WBCs [1]; 100 pmol/10e6 cells): 73.46% and 41.44% and 62.59% and 71.41% | Recovery Rate (WBCs [1]; 1 nmol/10e6 cells): 96.84% and 72.13% and 79.02% and 86.21% | Recovery Rate (WBCs [1]; 10 nmol/10e6 cells): 102.36% | Recovery Rate (white blood cells (WBCs); [3]): 41.44% | cells counted per well (white blood cells (WBCs); [3]): 105061 and 128195 and 139678 | Recovery Rate (white blood cells (WBCs); [4]): 72.13% | cells counted per well (white blood cells (WBCs); [5]): 218861 and 221471 and 208802 | Mean (cells counted per well) (white blood cells (WBCs); [6]): 187757.67 | Recovery Rate (white blood cells (WBCs); [6]): 62.59% | cells counted per well (white blood cells (WBCs); [7]): 178919 and 197130 and 187224 | Mean (cells counted per well) (white blood cells (WBCs); [8]): 237052.33 | Recovery Rate (white blood cells (WBCs); [8]): 79.02% | cells counted per well (white blood cells (WBCs); [9]): 239105 and 240632 and 231420

5′-Cholesteryl-TEG-PEG2000-Fluos-3′ [29.891132]
Labelling (staining/uptake) of cells (Epithelial cells): ✓ | Labelling (staining/uptake) of cells (MDA-MB468): ✓ | Labelling (staining/uptake) of cells (U937): ✓ | Labelling (staining/uptake) of cells (WBCs [2]): ✓ not all

5′-CholesterylTEG-CholesterylTEG-(SpacerC18)7-Fluos-BiotinTEG-3′ [29.891222]
WBC recovery rate after centrifugation, different experimenters, dependence on concentration (WBC; Centrifugation: 10 min): the higher the molecule concentration, the higher the cell recovery rate after centrifugation | WBC recovery rate after centrifugation at different points of time, dependence on concentration (WBC; Centrifugation: 10 min): The higher the molecule concentration, the higher the cell recovery rate after centrifugation | cell stabilization, dependence on experimenter (WBC; Experimenters 1, 2 and 3, 10 min): cell stabilization is independent on the experimenter

5′-CholesterylTEG-CholesterylTEG-PEG2000-BiotinTEG-3′ [29.891137]
Recovery Rate (WBCs [1]; WBCs, concentration not given): 77.1%

5′-CholesterylTEG-SpacerC12-CholesterylTEG-(SpacerC18)7-Fluos-BiotinTEG-3 [29.891224]
Recovery Rate (WBCs [1]; WBCs, 350 pmol/10e6 cells): 119.4% and 60.6% and 64.4% and 70.3% and 78.1%

5′-CholesterylTEG-SpacerC18-CholesterylTEG-(SpacerC18)7-Fluos-BiotinTEG-3′ [29.891225]
Recovery Rate (WBCs [1]; WBCs, 350 pmol/10e6 cells): 38.8% and 46.5%

5′-Myristic acid-CholesterylTEG-(SpacerC18)7-Fluos-BiotinTEG-3′ [29.891227]
Recovery Rate (WBCs [1]; WBCs, 350 pmol/10e6 cells): 64.9% and 69.6% and 77.8%

5′-Myristic acid-Myristic acid-(SpacerC18)7-Fluos-BiotinTEG-3′ [29.891214]
Recovery Rate (WBCs [1]; WBCs, 350 pmol/10e6 cells): 78.9% and 68.7% and 90.5% and 81.1% and 65.9% and 84.9% and 85.1% | Recovery rate treated cells (SA-plate) (WBCs [1]; [10]): 78.9%

5′-Myristic acid-Myristic acid-Myristic acid-(SpacerC18)7-Fluos-BiotinTEG-3′ [29.891221]
Recovery Rate (WBCs [1]; WBCs, 350 pmol/10e6 cells): 46.0% and 79.4% and 68.8% and 76.5% and 83.4%

5′-Myristic acid-Myristic acid-PEG2000-Fluos-BiotinTEG-3′ [29.891194]
Recovery Rate (WBCs [1]; WBCs, 350 pmol/10e6 cells): 21-26%

5′-Myristic acid-Myristic acid-SpacerC18-Fluos-BiotinTEG-3′ [29.891213]
Recovery Rate (WBCs [1]; WBCs, 350 pmol/10e6 cells): 67.4% and 61.9% and 80.2% and 70.4% | Recovery rate treated cells (SA-plate) (WBCs [1]; [10]): 67.4%

5′-Myristic acid-SpacerC9-Myristic acid-(SpacerC18)7-Fluos-BiotinTEG-3′ [29.891218]
Recovery Rate (WBCs [1]; WBCs, 350 pmol/10e6 cells): 50.3% and 55.1%

5′-Myristic acid-SpacerC9-Myristic acid-PEG2000-Fluos-BiotinTEG-3′ [29.891197]
staining (WBCs [2]; remark in the Recovery Rate column): not good

5′-Myristic acid-SpacerC12-Myristic acid-(SpacerC18)7-Fluos-BiotinTEG-3 [29.891219]
Recovery Rate (WBCs [1]; WBCs, 350 pmol/10e6 cells): 46.3% and 39.4% and 53.7% and 56.6%

5′-Myristic acid-SpacerC18-Myristic acid-(SpacerC18)7-Fluos-BiotinTEG-3′ [29.891220]
Recovery Rate (WBCs [1]; WBCs, 350 pmol/10e6 cells): 35.8% and 41.4% and 55.9% and 63.5%

5′-alphaTocopherolTEG-PEG2000-Fluos-3′ [29.891131]
Labelling (staining/uptake) of cells (Epithelial cells): ✓ | Labelling (staining/uptake) of cells (MDA-MB468): ✓ | Labelling (staining/uptake) of cells (U937): ✓ | Labelling (staining/uptake) of cells (WBCs [2]): ✓ not all

CCCCCCCCCCCCCCCCCCCCCCN1/C(=C/C=C/c2oc3ccccc3[n+]2CCC)Oc2ccccc21.[I-] [PKH2]
Labelling (staining/uptake) of cells (Epithelial cells): ✓ not all

CCCCCCCCCCCCCCCC(=O)OC[C@H](COP(=O)(O)OCCNC(=O)CCc1ccc2n1[B-](F)(F)[N+]1=C(C)C=C(C)C1=C2)OC(=O)CCCCCCCCCCCCCCC.CCN(CC)CC [Phosphatidylethanolamine, N-(4,4-difluoro-5,7-dimethyl-4-bora-3a,4a-diaza-s-indacene-3-propionyl)-1,2-dihexadecanoyl-sn-glycero-3-phosphoethanolamine, triethylammonium salt]
Labelling (staining/uptake) of cells (Hela): x/✓ very weak

Biotin-PEG-Lys-(C14)2 [15.260268]
Recovery Rate (WBCs [1]; 1.77 nmol/10e6 Cells): 85.72 | Recovery rate treated cells (SA-plate) (WBCs [1]; 2.16 μg/2 × 10e6 WBCs): 39.6% | Recovery rate treated cells (SA-plate) (WBCs [1]; 21.6 μg/2 × 10e6 WBCs): 46.7% | Recovery rate treated cells (SA-plate) (WBCs [1]; 216 μg/2 × 10e6 WBCs): 51.8% | Recovery Rate (WBCs [1]; WBCs, concentration not given): 52-86%

Biotin-PEG-Lysin-(C18)2 [listing 1 of 2 here]
enables cell immobilization within (WBC; Centrifugation: 10 min): ≤ 3.5 h | WBC recovery rate after centrifugation at different points of time, dependence on concentration (WBC; Centrifugation: 10 min): The higher the molecule concentration, the higher the cell recovery rate after centrifugation

Biotin-PEG-Lysin-(C18)2 [listing 2 of 2 here]
Recovery Rate (WBCs [1]; 10 pmol/10e6 cells): 4.8% | Recovery Rate (WBCs [1]; 100 pmol/10e6 cells): 6.8% | Recovery Rate (WBCs [1]; 1 nmol/10e6 cells): 21.8% and 29.6% | Recovery Rate (WBCs [1]; 10 nmol/10e6 cells): 60.6% and 43.0% and 68.5% | Recovery Rate (WBCs [1]; WBCs, 350 pmol/10e6 cells, 0.00003% Tween22): 15.0% | Recovery Rate (WBCs [1]; WBCs, 350 pmol/10e6 cells, 0.0001% Tween21): 10.0% | Recovery Rate (WBCs [1]; WBCs, 350 pmol/10e6 cells, 0.0003% Tween20): 10.0% | Recovery Rate (WBCs [1]; WBCs, 350 pmol/10e6 cells, 0.001% Tween20): 9.0% | Recovery Rate (WBCs [1]; WBCs, 0.5 nmol/10e6 cells): 25.0% and 27.0% and 38.0% | Recovery Rate (WBCs [1]; WBCs, 50 nmol/10e6 cells): 69.0%

Biotin-PEG-Lysin-(C18)2 [HH1749]
WBC recovery rate after centrifugation, dependence on concentration (WBC; Centrifugation: 10 min): The higher the concentration of the molecule, the higher the cell recovery rate after centrifugation

Biotin-PEG-Lysin-(C18)2 [HH1750]
WBC recovery rate after centrifugation, dependence on concentration (WBC; Centrifugation: 10 min): The higher the concentration of the molecule, the higher the cell recovery rate after centrifugation

Biotin-PEG-Lysin-(C18)2 [HH1755]
WBC recovery rate after centrifugation, dependence on concentration (WBC; Centrifugation: 10 min): The higher the concentration of the molecule, the higher the cell recovery rate after centrifugation

Sulfo-JA133-phenylboronic acid [15.000078]
Labelling (staining/uptake) of cells (Epithelial cells): ✓ | Labelling (staining/uptake) of cells (WBCs [2]): ✓ not all
